In patent publication US20230391772A1, “METHODS AND COMPOSITIONS FOR TARGETED PROTEIN DEGRADATION” (Ranok Therapeutics (Hangzhou) Co. Ltd., priority 2020, published 2023) one finds EC50 and IC50 data, which are given here for twelve molecules.

The structures appear in SMILES notation.

Test [1] deals with MIA PaCa-2 human pancreatic carcinoma. The test is described as follows: MIA PaCa-2 CCK-8 proliferation assay. In kind it is cell-based. The settings on record: Homo sapiens, MIA PaCa-2, 72 h, MIA PaCa-2 cells. The method, then:
The following cancer cell lines were employed: BT-474 human breast carcinoma (ATCC, #HTB-20); MIA PaCa-2 human pancreatic carcinoma [2 copies KRAS(G12C)](ATCC, #CRL-1420); NCI-H23 human non-small cell lung cancer [1 copy KRAS(G12C)](ATCC, #CRL-5800); NCI-H358 human non-small cell lung cancer [1 copy KRAS(G12C)](ATCC, #CRL-5807); LU65A human lung carcinoma (Pharmaron, Beijing, China). Cell lines were cultured essentially according to ATCC and Pharmaron recommendations.
Cancer Cell Line Proliferation (CCK-8) Assays
3-fold serial dilutions of each test compound were prepared ranging from 20 μM to 1.02 nM.
% Inhibition=100−(D−B)/(S−B)*100%. • S: Absorbance of cells treated with DMSO • D: Absorbance of compound-treated cells • B: Absorbance of medium with DMSO without cells
On the technique in general: Tetrazolium assays rely on reduction of a dye to a coloured formazan, in cell work by metabolically active cells.

The next test addresses T1, HSP90a protein (Homo sapiens, UniProt P07900).
T1 construct: purchased BPS Bioscience 50298
Kind of test: HSP90α-binding fluorescent polarization (FP) assay, BODIPY-labeled RNK04010 probe. The settings on record: FP competition with RNK04010 (BODIPY-labeled), 5 nM, 300 min at 25° C. The method, then: HSP90α-Binding Fluorescent Polarization (FP) Assay
Binding of test compounds to HSP90a protein was measured by fluorescent polarization (FP) using the HSP90a (N-terminal) Assay Kit (BPS Bioscience, #50298), following the manufacturer's instructions, except as noted. Fluorescently labeled HSP90-binding compounds, either the provided FITC-geldanamycin (5 nM final concentration) or RNK04010, a triazolone-based HSP90 binding small molecule labeled with BODIPY through a piperizine-phenyl linker (5 nM final concentration) were employed. A 2.5-fold serial dilution of each test compound ranging from 20 μM to 5.2 nM was assayed for binding to HSP90a. After the final step of adding HSP90a protein to each assay well, plates were mixed by brief shaking, incubated at 25° C. for 120 min for FITC-geldanamycin or 300 min for RNK04010, and fluorescence was measured using a PerkinElmer EnVision Plate Reader.

As for `C=CC(=O)N1CCN(c2nc(OC[C@@H]3CC[C@H](C(=O)N4CCN(C(=O)C5CCN(Cc6ccc(-n7c(O)nnc7-c7cc(C(C)C)c(O)cc7O)cc6)CC5)CC4)N3C)nc3c2CCN(c2cccc4cccc(Cl)c24)C3)C[C@@H]1CC#N` [Compound 305, 2-[(2S)-4-[7-(8-chloronaphthalen-1-yl)-2-{[(2S,5R)-5-{4-[1-({4-[3-(2,4-dihydroxy-5-isopropylphenyl)-5-hydroxy-1,2,4-triazol-4-yl]phenyl}methyl)piperidine-4-carbonyl]piperazine-1-carbonyl}-1-methylpyrrolidin-2-yl]methoxy}-5H,6H,8H-pyri-do[3,4-d]pyrimidin-4-yl]-1-(prop-2-enoyl)piperazin-2-yl]acetonitrile], in test [1], the EC50 lay in the range of 100 to 1000 nM. The molecule also returned an IC50 at HSP90a protein of under 100 nM.

As for `C=CC(=O)N1CCN(c2nc(OC[C@@H]3CCN(C(=O)COc4ccc(Nc5cc(-n6nc(C(F)(F)F)c7c6CC(C)(C)CC7=O)ccc5C(N)=O)cc4)C3)nc3c2CCN(c2cccc4cccc(Cl)c24)C3)C[C@@H]1CC#N` [Compound 178, 2-((4-(2-((R)-3-(((4-((S)-4-acryloyl-3-(cyanomethyl)piperazin-1-yl)-7-(8-chloronaphthalen-1-yl)-5,6,7,8-tetrahydropyrido[3,4-d]pyrimidin-2-yl)oxy)methyl)pyrrolidin-1-yl)-2-oxoethoxy)phenyl)amino)-4-(6,6-dimethyl-4-oxo-3-(trifluoromethyl)-4,5,6,7-tetrahydro-1H-indazol-1-yl)benzamide], the EC50 in test [1] is over 1000 nM. In addition, the IC50 on HSP90a protein is over 1000 nM.

As to `C=CC(=O)N1CCN(c2nc(OC[C@@H]3CN(C(=O)C4CCN(Cc5ccc(-n6c(C(=O)NCC(F)(F)F)nnc6-c6cc(C(C)C)c(O)cc6O)cc5)CC4)CCN3C)nc3c2CCN(c2cccc4cccc(Cl)c24)C3)C[C@@H]1CC#N` [Compound 199, 4-(4-((4-((S)-3-(((4-((S)-4-acryloyl-3-(cyanomethyl)piperazin-1-yl)-7-(8-chloronaphthalen-1-yl)-5,6,7,8-tetrahydropyrido[3,4-d]pyrimidin-2-yl)oxy)methyl)-4-methylpiperazine-1-carbonyl)piperidin-1-yl)methyl)phenyl)-5-(2,4-dihydroxy-5-isopropylphenyl)-N-(2,2,2-trifluoroethyl)-4H-1,2,4-triazole-3-carboxamide], in test [1], the EC50 fell in the range of 100 to 1000 nM. The IC50 on HSP90a protein was under 100 nM.

The molecule `C=CC(=O)N1CCN(c2nc(OC[C@@H]3CCN(C(=O)c4ccc5c(c4)CN(C(=O)c4cc(CC)c(O)cc4O)C5)C3)nc3c2CCN(c2cccc4cccc(Cl)c24)C3)C[C@@H]1CC#N` [Compound 176, 2-((S)-1-acryloyl-4-(7-(8-chloronaphthalen-1-yl)-2-(((R)-1-(2-(5-ethyl-2,4-dihydroxybenzoyl)isoindoline-5-carbonyl)pyrrolidin-3-yl)methoxy)-5,6,7,8-tetrahydropyrido[3,4-d]pyrimidin-4-yl)piperazin-2-yl)acetonitrile] came in with an IC50 at HSP90a protein of over 1000 nM.

In turn, `C=CC(=O)N1CCN(c2nc(OC[C@H]3CCN(C(=O)C4CCN(Cc5ccc(-n6c(O)nnc6-c6cc(C(C)C)c(O)cc6O)cc5)CC4)C3)nc3c2CCN(c2cccc4cccc(Cl)c24)C3)C[C@@H]1CC#N` [Compound 184, 2-((S)-1-acryloyl-4-(7-(8-chloronaphthalen-1-yl)-2-(((S)-1-(1-(4-(3-(2,4-dihydroxy-5-isopropylphenyl)-5-hydroxy-4H-1,2,4-triazol-4-yl)benzyl)piperidine-4-carbonyl)pyrrolidin-3-yl)methoxy)-5,6,7,8-tetrahydropyrido[3,4-d]pyrimidin-4-yl)piperazin-2-yl)acetonitrile] had an EC50 in test [1] of 100 to 1000 nM. This molecule had an IC50 on HSP90a protein of 100 to 1000 nM.

As to `C=CC(=O)N1CCN(c2nc(OC[C@@H]3CCN(CCCOCCC(=O)NCc4ccc(-n5c(O)nnc5-c5cc(C(C)C)c(O)cc5O)cc4)C3)nc3c2CCN(c2cccc4cccc(Cl)c24)C3)C[C@@H]1CC#N` [Compound 182, 3-(3-((R)-3-(((4-((S)-4-acryloyl-3-(cyanomethyl)piperazin-1-yl)-7-(8-chloronaphthalen-1-yl)-5,6,7,8-tetrahydropyrido[3,4-d]pyrimidin-2-yl)oxy)methyl)pyrrolidin-1-yl)propoxy)-N-(4-(3-(2,4-dihydroxy-5-isopropylphenyl)-5-hydroxy-4H-1,2,4-triazol-4-yl)benzyl)propanamide], the EC50 in test [1] was over 1000 nM. This molecule also had an IC50 at HSP90a protein of under 100 nM.

As to `C=CC(=O)N1CCN(c2nc(OCC3CCN(C(=O)C4CCN(Cc5ccc(-n6c(O)nnc6-c6cc(C(C)C)c(O)cc6O)cc5)CC4)CC3)nc3c2CCN(c2cccc4cccc(Cl)c24)C3)C[C@@H]1CC#N` [Compound 179, (S)-2-(1-acryloyl-4-(7-(8-chloronaphthalen-1-yl)-2-((1-(1-(4-(3-(2,4-dihydroxy-5-isopropylphenyl)-5-hydroxy-4H-1,2,4-triazol-4-yl)benzyl)piperidine-4-carbonyl)piperidin-4-yl)methoxy)-5,6,7,8-tetrahydropyrido[3,4-d]pyrimidin-4-yl)piperazin-2-yl)acetonitrile], in test [1], the EC50 lay in the range of 100 to 1000 nM. This molecule also displayed an IC50 on HSP90a protein of under 100 nM.

Consider `CC(C)c1cc(-c2nnc(O)n2-c2ccc(CN3CCC(C(=O)N4CC[C@@H](COc5nc6c(c(N7CCN(C(=O)C(F)(F)F)[C@@H](CC#N)C7)n5)CCN(c5cccc7cccc(Cl)c57)C6)C4)CC3)cc2)c(O)cc1O` [Compound 177, 2-((S)-4-(7-(8-chloronaphthalen-1-yl)-2-(((R)-1-(1-(4-(3-(2,4-dihydroxy-5-isopropylphenyl)-5-hydroxy-4H-1,2,4-triazol-4-yl)benzyl)piperidine-4-carbonyl)pyrrolidin-3-yl)methoxy)-5,6,7,8-tetrahydropyrido[3,4-d]pyrimidin-4-yl)-1-(2,2,2-trifluoroacetyl)piperazin-2-yl)acetonitrile], for which the IC50 on HSP90a protein was 100 to 1000 nM.

Turning to `C=CC(=O)N1CCN(c2nc(NCCC(=O)NCc3ccc(CN4CCC(Cc5ccc(-n6c(C(=O)NC(C)C)nnc6-c6cc(C(C)C)c(O)cc6O)cc5)CC4)cc3)nc3c2CCN(c2cc(O)cc4ccccc24)C3)CC1` [Compound 126, 4-(4-((1-(4-((3-((4-(4-acryloylpiperazin-1-yl)-7-(3-hydroxynaphthalen-1-yl)-5,6,7,8-tetrahydropyrido[3,4-d]pyrimidin-2-yl)amino)propanamido)methyl)benzyl)piperidin-4-yl)methyl)phenyl)-5-(2,4-dihydroxy-5-isopropylphenyl)-N-isopropyl-4H-1,2,4-triazole-3-carboxamide, trifluoroacetic acid], the IC50 on HSP90a protein was 100 to 1000 nM.

In test [1], `C=CC(=O)N1CCN(c2nc(OCC3(CN4CCN(Cc5ccc(-n6c(O)nnc6-c6cc(C(C)C)c(O)cc6O)cc5)CC4)CC3)nc3c2CCN(c2cccc(C)c2C)C3)C[C@@H]1CC#N` [Compound 292, 2-[(2S)-4-{2-[(1-{[4-({4-[3-(2,4-dihydroxy-5-isopropylphenyl)-5-hydroxy-1,2,4-triazol-4-yl]phenyl}methyl)piperazin-1-yl]methyl}cyclopropyl)methoxy]-7-(2,3-dimethylphenyl)-5H,6H,8H-pyrido[3,4-d]pyrimidin-4-yl}-1-(prop-2-enoyl)piperazin-2-yl]acetonitrile] had an EC50 of 100 to 1000 nM.

Consider `C=CC(=O)N1CCN(c2nc(OC[C@@H]3CCN(C(=O)c4ccc5c(c4)CN(C(=O)c4cc(C(C)C)c(O)cc4O)C5)C3)nc3c2CCN(c2cccc4cccc(Cl)c24)C3)C[C@@H]1CC#N` [Compound 175, 2-((S)-1-acryloyl-4-(7-(8-chloronaphthalen-1-yl)-2-(((R)-1-(2-(2,4-dihydroxy-5-isopropylbenzoyl)isoindoline-5-carbonyl)pyrrolidin-3-yl)methoxy)-5,6,7,8-tetrahydropyrido[3,4-d]pyrimidin-4-yl)piperazin-2-yl)acetonitrile], for which, on HSP90a protein, the IC50 is over 1000 nM.

Regarding `C=CC(=O)N1CCN(c2nc(OCC3(CN4CCN(Cc5ccc(-n6c(C(=O)NCC)nnc6-c6cc(C(C)C)c(O)cc6O)cc5)CC4)CC3)nc3c2CCN(c2cccc(C)c2C)C3)C[C@@H]1CC#N` [Compound 291, 4-(4-{[4-({1-[({4-[(3S)-3-(cyanomethyl)-4-(prop-2-enoyl)piperazin-1-yl]-7-(2,3-dimethylphenyl)-5H,6H,8H-pyrido[3,4-d]pyrimidin-2-yl}oxy)methyl]cyclopropyl}-methyl)piperazin-1-yl]methyl}phenyl)-5-(2,4-dihydroxy-5-isopropylphenyl)-N-et-hyl-1,2,4-triazole-3-carboxamide], the EC50 in test [1] was under 100 nM.

The EC50 is the midpoint of the concentration-response curve. Low values mean an effect from little substance, high ones a need for much substance. The term IC50 denotes the concentration that inhibits the measured activity by half. A low value points to greater potency.
